As usually defined, the DC50 is the concentration at which degradation of the target reaches its halfway point. A high value points to a less potent degrader. Broadly, the Dmax is the greatest extent of degradation seen.

A value given as a limit tells only on which side of the number the result lay.

For the assay, the target named is T1, BTK (Homo sapiens, UniProt Q06187).
T1 construct: endogenous in cells; host or cells: Rec-1 cells (ATCC) / Ramos cells
T1 sequence (Q06187 whole entry): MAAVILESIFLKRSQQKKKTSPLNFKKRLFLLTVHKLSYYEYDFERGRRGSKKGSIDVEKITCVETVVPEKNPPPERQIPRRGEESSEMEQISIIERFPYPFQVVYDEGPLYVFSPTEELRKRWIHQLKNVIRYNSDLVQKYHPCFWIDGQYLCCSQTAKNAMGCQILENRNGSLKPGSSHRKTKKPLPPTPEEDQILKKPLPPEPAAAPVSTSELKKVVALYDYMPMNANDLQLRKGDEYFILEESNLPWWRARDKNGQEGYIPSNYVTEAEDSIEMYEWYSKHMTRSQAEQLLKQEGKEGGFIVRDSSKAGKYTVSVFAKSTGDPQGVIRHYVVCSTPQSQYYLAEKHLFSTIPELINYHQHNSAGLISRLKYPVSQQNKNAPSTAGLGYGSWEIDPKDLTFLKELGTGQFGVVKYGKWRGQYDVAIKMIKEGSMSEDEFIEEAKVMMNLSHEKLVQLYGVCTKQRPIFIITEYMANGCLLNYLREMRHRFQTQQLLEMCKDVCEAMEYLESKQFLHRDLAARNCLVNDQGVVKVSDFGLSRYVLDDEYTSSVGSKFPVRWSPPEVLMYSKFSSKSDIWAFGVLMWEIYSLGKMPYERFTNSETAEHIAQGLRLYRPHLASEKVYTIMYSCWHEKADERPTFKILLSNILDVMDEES
Kind of assay: BTK HTRF degradation assay. The following applies: treatment time 24 h; Cisbio Total-BTK HTRF; Rec-1 / Ramos cells. The class given is cell-based. The procedure: Rec-1 cells were obtained from American Type Culture Collection and were grown in RPMI-1640 media (ATCC, 30-2001) supplemented with 10% heat-inactivated FBS (Corning Premium Fetal Bovine Serum from Fisher, MT35015CV). Compounds of the present invention were added to 50,000 Ramos cells in round-bottom 96 well plates with a final DMSO concentration of […] and were incubated at 37° C. 5% CO2 for different time. BTK levels were determined using Cisbio Total-BTK HTRF ([…] Time-Resolved Fluorescence) kit (63ADK064PEG) according to manufacturer's protocol. Briefly, cells were incubated in 1× supplied lysis buffer for 30 minutes. In an opaque white low volume 96 well plate (Cisbio, 66PL96005), cell lysate was combined with two different specific BTK antibodies, one conjugated with Eu3+-Cryptate FRET donor and one conjugated with d2 FRET acceptor. Assay controls include wells containing cell lysate with only the Eu3+-Cryptate FRET donor antibody and wells containing both HTRF antibodies and lysis buffer without cells or control lysate provided by Cisbio. HTRF ratio was calculated as (acceptor signal at 665 nm/donor signal at 620 nm)×[…]. Background HTRF levels were determined from the control well containing the donor, but no acceptor, antibody. Background HTRF levels were subtracted from all samples. Readouts were reported as HTRF levels relative to HTRF levels of DMSO-treated cells. Four-parameter non-linear regressions were performed in GraphPad Prism 7.02 to obtain DC50 values.
A general note: In TR-FRET formats the signal depends on donor and acceptor labels being close together.
Compound “5-{4-[(3S)-4-{6-[(6-tert-butyl-2′. {4,4-dimethyl-9-oxo-1,10-diazatricyclo[6.4.0.0^{2,6}]dodeca-2(6),7-dien-10-yl}-3′-(hydroxymethyl)-[3,4′-bipyridin]-5-yl)amino]pyridin-3-yl}-3-methylpiperazin-1-yl]piperidin-1-yl}-2-(2,6-dioxopiperidin-3-yl)isoindole-1,3-dione [Example 12]” gave a DC50 of over 1000 nM and a Dmax % of 7%.

`C[C@H]1CN(C2CN(c3ccc4c(c3)C(=O)N(C3CCC(=O)NC3=O)C4=O)C2)CCN1c1ccc(Nc2cc(-c3ccnc(N4CCn5c(cc6c5CC(C)(C)C6)C4=O)c3CO)cn(C)c2=O)nc1` (stereo partly drawn) [Example 1, 5-{3-[(3S)-4-{6-[(2′-{4,4-dimethyl-9-oxo-1,10-diazatricyclo[6.4.0.0^{2,6}]dodeca-2(6),7-dien-10-yl}-3′-(hydroxymethyl)-1-methyl-6-oxo-[3,4′-bipyridin]-5-yl)amino]pyridin-3-yl}-3-methylpiperazin-1-yl]azetidin-1-yl}-2-(2,6-dioxopiperidin-3-yl)isoindole-1,3-dione] showed a DC50 of 1.16 nM and a Dmax % of 100%.

The compound `C[C@H]1CN(C2CC(C#Cc3ccc4c(c3)C(=O)N(C3CCC(=O)NC3=O)C4=O)C2)CCN1c1ccc(Nc2cc(-c3ccnc(N4CCn5c(cc6c5CC(C)(C)C6)C4=O)c3CO)cn(C)c2=O)nc1` (stereo partly drawn) [Example 3, 5-((3-((S)-4-(6-((2′-(7,7-dimethyl-1-oxo-1,3,4,6,7,8-hexahydro-2H-cyclopenta[4,5]pyrrolo[1,2-a]pyrazin-2-yl)-3′-(hydroxymethyl)-1-methyl-6-oxo-1,6-dihydro-[3,4′-bipyridin]-5-yl)amino)pyridin-3-yl)-3-methylpiperazin-1-yl)cyclobutyl)ethynyl)-2-(2,6-dioxopiperidin-3-yl)isoindoline-1,3-dione] gave a DC50 of 2.04 nM and a Dmax of 97%.

`C[C@H]1CN(C2CCN(c3ccc4c(c3)C(=O)N(C3CCC(=O)NC3=O)C4=O)CC2)CCN1c1ccc(Nc2cc(-c3ccnc(N4CCc5c(sc6c5CCCC6)C4=O)c3CO)cn(C)c2=O)nc1` (stereo partly drawn) [Example 9, 2-(2,6-dioxopiperidin-3-yl)-5-{4-[(3S)-4-(6-{[3′-(hydroxymethyl)-1-methyl-6-oxo-2′-{6-oxo-8-thia-5-azatricyclo[7.4.0.0^{2,7}]trideca-1(9),2(7)-dien-5-yl}-[3,4′-bipyridin]-5-yl]amino}pyridin-3-yl)-3-methylpiperazin-1-yl]piperidin-1-yl}isoindole-1,3-dione] had a DC50 of 0.9 nM and a Dmax % of 99%.

As to `Cc1c(-c2cc(Nc3ccc(N4CCN(C5CCN(c6ccc7c(c6)C(=O)N(C6CCC(=O)NC6=O)C7=O)CC5)C[C@@H]4C)cn3)c(=O)n(C)c2)ccnc1N1CCn2c(cc3c2CC(C)(C)C3)C1=O` (stereo partly drawn) [Example 10, 5-{4-[(3S)-4-{6-[(2′-{4,4-dimethyl-9-oxo-1,10-diazatricyclo[6.4.0.0^{2,6}]dodeca-2(6),7-dien-10-yl}-1,3′-dimethyl-6-oxo-[3,4′-bipyridin]-5-yl)amino]pyridin-3-yl}-3-methylpiperazin-1-yl]piperidin-1-yl}-2-(2,6-dioxopiperidin-3-yl)isoindole-1,3-dione], the DC50 turned out to be 4.63 nM and the Dmax % was found to be 99%.

In turn, `C[C@H]1CN(C2CCN(c3ccc4c(c3)C(=O)N(C3CCC(=O)NC3=O)C4=O)CC2)CCN1c1ccc(Nc2cc(-c3ccnc(N4CCc5c(sc6c5CCCC6)C4=O)c3CO)cn(C)c2=O)nc1` (stereo partly drawn) [Example 11, 2-(2,6-dioxopiperidin-3-yl)-5-{4-[(3S)-4-(6-{[3′-(hydroxymethyl)-1-methyl-6-oxo-2′-{6-oxo-8-thia-5-azatricyclo[7.4.0.0^{2,7}]trideca-1(9),2(7)-dien-5-yl}-[3,4′-bipyridin]-5-yl]amino}pyridin-3-yl)-3-methylpiperazin-1-yl]piperidin-1-yl}isoindole-1,3-dione] returned a DC50 of 9.49 nM and a Dmax % of 99%.

In turn, `C[C@H]1CN(C2CCN(c3ccc4c(c3)C(=O)N(C3CCC(=O)NC3=O)C4=O)CC2)CCN1c1ccc(Nc2cc(-c3ccnc(N4CCn5c(cc6c5CC(C)(C)C6)C4=O)c3CO)ccn2)nc1` (stereo partly drawn) [Example 13, 5-{4-[(3S)-4-{6-[(2′-{4,4-dimethyl-9-oxo-1,10-diazatricyclo[6.4.0.0^{2,6}]dodeca-2(6),7-dien-10-yl}-3′-(hydroxymethyl)-[4,4′-bipyridin]-2-yl)amino]pyridin-3-yl}-3-methylpiperazin-1-yl]piperidin-1-yl}-2-(2,6-dioxopiperidin-3-yl)isoindole-1,3-dione] displayed a DC50 of 4.4 nM and a Dmax % of 98%.

`COc1ncc(-c2ccnc(N3CCn4c(cc5c4CC(C)(C)C5)C3=O)c2CO)cc1Nc1ccc(N2CCN(C3CCN(c4ccc5c(c4)C(=O)N(C4CCC(=O)NC4=O)C5=O)CC3)C[C@@H]2C)cn1` (stereo partly drawn) [Example 14, 5-{4-[(3S)-4-{6-[(2′-{4,4-dimethyl-9-oxo-1,10-diazatricyclo[6.4.0.0^{2,6}]dodeca-2(6),7-dien-10-yl}-3′-(hydroxymethyl)-6-methoxy-[3,4′-bipyridin]-5-yl)amino]pyridin-3-yl}-3-methylpiperazin-1-yl]piperidin-1-yl}-2-(2,6-dioxopiperidin-3-yl)isoindole-1,3-dione]: the DC50 came to 1.15 nM and the Dmax % is 94%.

Turning to `C[C@H]1CN(C2CCN(c3ccc4c(c3)C(=O)N(C3CCC(=O)NC3=O)C4=O)CC2)CCN1c1ccc(Nc2cc(-c3ccnc(N4CCn5c(cc6c5CC(C)(C)C6)C4=O)c3CO)ncn2)nc1` (stereo partly drawn) [Example 15, 5-{4-[(3S)-4-(6-{[6-(2-{4,4-dimethyl-9-oxo-1,10-diazatricyclo[6.4.0.0^{2,6}]dodeca-2(6),7-dien-10-yl}-3-(hydroxymethyl)pyridin-4-yl)pyrimidin-4-yl]amino}pyridin-3-yl)-3-methylpiperazin-1-yl]piperidin-1-yl}-2-(2,6-dioxopiperidin-3-yl)isoindole-1,3-dione], the DC50 was 21.7 nM and the Dmax % worked out at 98%.

`C[C@H]1CN([C@@H]2CCN3c4ccc5c(c4OC[C@H]3C2)C(=O)N(C2CCC(=O)NC2=O)C5=O)CCN1c1ccc(Nc2cc(-c3ccnc(N4CCn5c(cc6c5CC(C)(C)C6)C4=O)c3CO)cn(C)c2=O)nc1` (stereo partly drawn) [Example 16, (5aR,7R)-7-((S)-4-(6-((2′-(7,7-dimethyl-1-oxo-1,3,4,6,7,8-hexahydro-2H-cyclopenta[4,5]pyrrolo[1,2-a]pyrazin-2-yl)-3′-(hydroxymethyl)-1-methyl-6-oxo-1,6-dihydro-[3,4′-bipyridin]-5-yl)amino)pyridin-3-yl)-3-methylpiperazin-1-yl)-2-(2,6-dioxopiperidin-3-yl)-5,5a,6,7,8,9-hexahydro-1H-pyrido[1′,2′:4,5][1,4]oxazino[2,3-e]isoindole-1,3(2H)-dione] had a DC50 of 29.6 nM and a Dmax of 97%.

As to `C[C@H]1CN([C@H]2CCN3c4ccc5c(c4OC[C@H]3C2)C(=O)N(C2CCC(=O)NC2=O)C5=O)CCN1c1ccc(Nc2cc(-c3ccnc(N4CCn5c(cc6c5CC(C)(C)C6)C4=O)c3CO)cn(C)c2=O)nc1.Cl` (stereo partly shown) [Example 17, hydrochloride], the DC50 was determined as 3.58 nM.

`C[C@H]1CN([C@H]2CCN3c4ccc5c(c4OC[C@H]3C2)C(=O)N(C2CCC(=O)NC2=O)C5=O)CCN1c1ccc(Nc2cc(-c3ccnc(N4CCn5c(cc6c5CC(C)(C)C6)C4=O)c3CO)cn(C)c2=O)nc1.Cl` (stereo partly shown) [Example 17] showed a Dmax % of 95%.
